{"source": "patent US20230002375A1", "about": "“HYDROPYRAZINO[1,2-B]ISOQUINOLINE COMPOUNDS FOR THE TREATMENT OF AUTOIMMUNE DISEASE” (Hoffmann-La Roche Inc., priority 2019, published 2023)", "data": [{"target": "T1, human TLR7 (Homo sapiens, UniProt Q9NYK1)", "T1 sequence (Q9NYK1 27-1049)": "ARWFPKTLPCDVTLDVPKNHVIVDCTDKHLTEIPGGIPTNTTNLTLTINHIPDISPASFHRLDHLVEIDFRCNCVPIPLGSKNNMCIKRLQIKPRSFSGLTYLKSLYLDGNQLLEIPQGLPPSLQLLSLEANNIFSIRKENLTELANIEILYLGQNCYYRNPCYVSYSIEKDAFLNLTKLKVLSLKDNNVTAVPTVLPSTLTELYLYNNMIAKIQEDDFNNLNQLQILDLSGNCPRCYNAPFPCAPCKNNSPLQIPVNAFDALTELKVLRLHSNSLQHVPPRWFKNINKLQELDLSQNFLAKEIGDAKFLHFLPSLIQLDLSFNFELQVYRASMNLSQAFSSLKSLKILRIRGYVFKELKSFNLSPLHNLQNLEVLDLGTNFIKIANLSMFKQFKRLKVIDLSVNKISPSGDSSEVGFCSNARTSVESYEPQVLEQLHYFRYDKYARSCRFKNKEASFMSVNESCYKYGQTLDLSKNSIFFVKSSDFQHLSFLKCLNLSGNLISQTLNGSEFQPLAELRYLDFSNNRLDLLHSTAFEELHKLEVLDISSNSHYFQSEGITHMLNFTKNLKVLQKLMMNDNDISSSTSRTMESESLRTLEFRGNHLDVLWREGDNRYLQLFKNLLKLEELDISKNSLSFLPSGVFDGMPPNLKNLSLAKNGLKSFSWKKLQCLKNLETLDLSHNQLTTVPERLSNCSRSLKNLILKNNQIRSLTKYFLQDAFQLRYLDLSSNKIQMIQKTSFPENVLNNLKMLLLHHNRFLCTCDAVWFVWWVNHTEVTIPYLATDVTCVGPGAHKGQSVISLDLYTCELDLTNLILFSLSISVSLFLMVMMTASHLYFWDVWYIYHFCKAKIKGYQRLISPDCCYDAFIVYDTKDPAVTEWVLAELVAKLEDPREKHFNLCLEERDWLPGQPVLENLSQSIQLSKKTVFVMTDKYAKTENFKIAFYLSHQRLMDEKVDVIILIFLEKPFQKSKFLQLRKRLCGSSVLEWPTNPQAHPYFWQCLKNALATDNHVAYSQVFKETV", "assay": "HEK293-Blue-hTLR-7 cells assay (SEAP reporter, R848 stimulation)", "assay_type": "cell-based", "conditions": "HEK293-Blue-hTLR7 cells, R848, 20 hrs incubation; read-out: HEK/hTLR7 IC50", "description": "The following tests were carried out in order to determine the activity of the compounds of formula (I), (Ia) or (Ib) in HEK293-Blue-hTLR-7/8/9 cells assay.\nHEK293-Blue-hTLR-7 Cells Assay:\nA stable HEK293-Blue-hTLR-7 cell line was purchased from InvivoGen (Cat.#: hkb-htlr7, San Diego, Calif., USA). These cells were originally designed for studying the stimulation of human TLR7 by monitoring the activation of NF-κB. A SEAP (secreted embryonic alkaline phosphatase) reporter gene was placed under the control of the IFN-β minimal promoter fused to five NF-κB and AP-1-binding sites. The SEAP was induced by activating NF-κB and AP-1 via stimulating HEK-Blue hTLR7 cells with TLR7 ligands. Therefore the reporter expression was declined by TLR7 antagonist under the stimulation of a ligand, such as R848 (Resiquimod), for incubation of 20 hrs. The cell culture supernatant SEAP reporter activity was determined using QUANTI-Blue™ kit (Cat.#: rep-qb1, Invivogen, San Diego, Ca, USA) at a wavelength of 640 nm, a detection medium that turns purple or blue in the presence of alkaline phosphatase.\nHEK293-Blue-hTLR7 cells were incubated at a density of 250,000˜450,000 cells/mL in a volume of 170 μL in a 96-well plate in Dulbecco's Modified Eagle's medium (DMEM) containing 4.5 g/L glucose, 50 U/mL penicillin, […], […], 2 mM L-glutamine, 10% (v/v) heat-inactivated fetal bovine serum with addition of 20 μL test compound in a serial dilution in the presence of final DMSO at 1% and 10 μL of 20 uM R848 in above DMEM, perform incubation under 37° C. in a CO2 incubator for 20 hrs. Then 20 μL of the supernatant from each well was incubated with 180 μL Quanti-blue substrate solution at 37° C. for 2 hrs and the absorbance was read at 620-655 nm using a spectrophotometer. The signaling pathway that TLR7 activation leads to downstream NF-κB activation has been widely accepted, and therefore similar reporter assay was modified for evaluating TLR7 antagonist.", "units": {"IC50": "nM"}, "values": [{"smiles": "C[C@@H]1CN(c2ccc(C#N)c3ncccc23)C[C@@H]2Cc3cc(N4C[C@@H]5CNCCN5C4=O)ccc3CN21", "note": "(single isomer, unassigned) [Example 17A]", "IC50": 10.3}, {"smiles": "C[C@@H]1CN(c2ccc(C#N)c3ncccc23)C[C@@H]2Cc3cc(N4C[C@H]5CNCCN5C4=O)ccc3CN21", "note": "(single isomer, unassigned) [Example 17B]", "IC50": 10.3}, {"smiles": "C[C@@H]1CN(c2ccc(C#N)c3ncccc23)C[C@@H]2Cc3cc(N4CC5NCCOC5C4)ccc3CN21", "note": "(stereo in doubt) [Example 10, 5-[(4R,11aS)-9-[(4aS,7aS)-3,4,4a,5,7,7a-hexahydro-2H-pyrrolo[3,4-b][1,4]oxazin-6-yl]-4-methyl-1,3,4,6,11,11a-hexahydropyrazino[1,2-b]isoquinolin-2-yl]quinoline-8-carbonitrile]", "IC50": 21.8}, {"smiles": "C[C@@H]1CN(c2ccc(C#N)c3ncccc23)C[C@@H]2Cc3ccc(N4CCOCC(N)C4)cc3CN21", "note": "(stereo partly drawn) [Example 1, 5-[(4R,11aS)-8-(6-amino-1,4-oxazepan-4-yl)-4-methyl-1,3,4,6,11,11a-hexahydropyrazino[1,2-b]isoquinolin-2-yl]quinoline-8-carbonitrile]", "IC50": 71.6}, {"smiles": "C[C@@H]1CN(c2ccc(C#N)c3ncccc23)C[C@@H]2Cc3ccc(NCCN4CC[C@H](O)C4)cc3CN21", "note": "[Example 2, 5-[(4R,11aS)-8-[2-[(3S)-3-hydroxypyrrolidin-1-yl]ethylamino]-4-methyl-1,3,4,6,11,11a-hexahydropyrazino[1,2-b]isoquinolin-2-yl]quinoline-8-carbonitrile]", "IC50": 53.1}, {"smiles": "C[C@@H]1CN(c2ccc(C#N)c3ncccc23)C[C@@H]2Cc3ccc(OCCN(C)C)cc3CN21", "note": "[Example 5, 5-[(4R,11aS)-8-[2-(dimethylamino)ethoxy]-4-methyl-1,3,4,6,11,11a-hexahydropyrazino[1,2-b]isoquinolin-2-yl]quinoline-8-carbonitrile]", "IC50": 38.2}, {"smiles": "C[C@@H]1CN(c2ccc(C#N)c3ncccc23)C[C@@H]2Cc3cc(N[C@@H]4CNC[C@@H]4F)ccc3CN21", "note": "[Example 6, 5-[(4R,11aS)-4-methyl-9-[[(3R,4S)-4-fluoropyrrolidin-3-yl]amino]-1,3,4,6,11,11a-hexahydropyrazino[1,2-b]isoquinolin-2-yl]quinoline-8-carbonitrile]", "IC50": 24.7}, {"smiles": "CO[C@H]1CNC[C@H]1Nc1ccc2c(c1)C[C@H]1CN(c3ccc(C#N)c4ncccc34)C[C@@H](C)N1C2", "note": "[Example 7, 5-[(4R,11aS)-9-[[(3R,4S)-4-methoxypyrrolidin-3-yl]amino]-4-methyl-1,3,4,6,11,11a-hexahydropyrazino[1,2-b]isoquinolin-2-yl]quinoline-8-carbonitrile]", "IC50": 27.4}, {"smiles": "C[C@@H]1CN(c2ccc(C#N)c3ncccc23)C[C@@H]2Cc3cc(N4C[C@@H](F)[C@@H](N)C4)ccc3CN21", "note": "[Example 8, 5-[(4R,11aS)-9-[(3S,4R)-3-amino-4-fluoro-pyrrolidin-1-yl]-4-methyl-1,3,4,6,11,11a-hexahydropyrazino[1,2-b]isoquinolin-2-yl]quinoline-8-carbonitrile]", "IC50": 35.5}, {"smiles": "CO[C@H]1CN(c2ccc3c(c2)C[C@H]2CN(c4ccc(C#N)c5ncccc45)C[C@@H](C)N2C3)C[C@H]1N", "note": "[Example 9, 5-[(4R,11aS)-9-[(3R,4S)-3-amino-4-methoxy-pyrrolidin-1-yl]-4-methyl-1,3,4,6,11,11a-hexahydropyrazino[1,2-b]isoquinolin-2-yl]quinoline-8-carbonitrile]", "IC50": 19.5}, {"smiles": "C[C@@H]1CN(c2ccc(C#N)c3ncccc23)C[C@@H]2Cc3cc(OCCN(C)C)ccc3CN21", "note": "[Example 11, 5-[(4R,11aS)-9-[2-(dimethylamino)ethoxy]-4-methyl-1,3,4,6,11,11a-hexahydropyrazino[1,2-b]isoquinolin-2-yl]quinoline-8-carbonitrile]", "IC50": 5.8}, {"smiles": "C[C@@H]1CN(c2ccc(C#N)c3ncccc23)C[C@@H]2Cc3cc(OC[C@@H]4CCN4)ccc3CN21", "note": "[Example 12, 5-[(4R,11aS)-9-[[(2S)-azetidin-2-yl]methoxy]-4-methyl-1,3,4,6,11,11a-hexahydropyrazino[1,2-b]isoquinolin-2-yl]quinoline-8-carbonitrile]", "IC50": 18.2}, {"smiles": "C[C@@H]1CN(c2ccc(C#N)c3ncccc23)C[C@@H]2Cc3cc(N4CCN(C(=O)C(C)(C)N)CC4)ccc3CN21", "note": "[Example 13, 5-[(4R,11aS)-9-[4-(2-amino-2-methyl-propanoyl)piperazin-1-yl]-4-methyl-1,3,4,6,11,11a-hexahydropyrazino[1,2-b]isoquinolin-2-yl]quinoline-8-carbonitrile]", "IC50": 18.6}, {"smiles": "C[C@@H]1CN(c2ccc(C#N)c3ncccc23)C[C@@H]2Cc3cc(N4CCN(C(=O)[C@]5(C)CCCN5)CC4)ccc3CN21", "note": "[Example 14, 5-[(4R,11aS)-4-methyl-9-[4-[(2S)-2-methylpyrrolidine-2-carbonyl]piperazin-1-yl]-1,3,4,6,11,11a-hexahydropyrazino[1,2-b]isoquinolin-2-yl]quinoline-8-carbonitrile]", "IC50": 18.6}, {"smiles": "C[C@@H]1CN(c2ccc(C#N)c3ncccc23)C[C@@H]2Cc3cc(N4C[C@@H]5C[C@H]4CN5C(=O)C(C)(C)N)ccc3CN21", "note": "[Example 15, 5-[(4R,11aS)-9-[(1S,4S)-5-(2-amino-2-methyl-propanoyl)-2,5-diazabicyclo[2.2.1]heptan-2-yl]-4-methyl-1,3,4,6,11,11a-hexahydropyrazino[1,2-b]isoquinolin-2-yl]quinoline-8-carbonitrile]", "IC50": 2.4}, {"smiles": "C[C@@H]1CN(c2ccc(C#N)c3ncccc23)C[C@@H]2Cc3cc(N4CC(N)CC4=O)ccc3CN21", "note": "(stereo partly drawn) [Example 16, 5-[(4R,11aS)-9-(4-amino-2-oxo-pyrrolidin-1-yl)-4-methyl-1,3,4,6,11,11a-hexahydropyrazino[1,2-b]isoquinolin-2-yl]quinoline-8-carbonitrile]", "IC50": 2.9}, {"smiles": "C[C@@H]1CN(c2ccc(C#N)c3ncccc23)C[C@@H]2Cc3cc(N4CC5CCNCC5C4=O)ccc3CN21", "note": "(stereo partly drawn) [Example 18, 5-[(4R,11aS)-4-methyl-9-(3-oxo-3a,4,5,6,7,7a-hexahydro-1H-pyrrolo[3,4-c]pyridin-2-yl)-1,3,4,6,11,11a-hexahydropyrazino[1,2-b]isoquinolin-2-yl]quinoline-8-carbonitrile]", "IC50": 71.6}, {"smiles": "C[C@@H]1CN(c2ccc(C#N)c3ncccc23)C[C@@H]2Cc3cc(N4CC5CNCCC5C4=O)ccc3CN21", "note": "(stereo partly drawn) [Example 19, 5-[(4R,11aS)-4-methyl-9-(1-oxo-3a,4,5,6,7,7a-hexahydro-3H-pyrrolo[3,4-c]pyridin-2-yl)-1,3,4,6,11,11a-hexahydropyrazino[1,2-b]isoquinolin-2-yl]quinoline-8-carbonitrile]", "IC50": 53.1}]}]}
